Results on eleven compounds are retold here after PubChem BioAssay (NCI).

Some test systems named below: DLD-1 colon; M14 melanoma; U251 CNS; SNB-75 CNS; KM20L2 colon; SK-OV-3 ovarian; M19-MEL melanoma; SNB-78 CNS; KM12 colon; MDA-MB-435; PC-3 prostate; NCI/ADR-RES ovarian.
Holding throughout (assay): NCI anticancer screen, dose series, 48 h

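48-hour exposure; five concentrations; linearly interpolated endpoints. GI50 marks 50% less growth. Definition used: TGI = concentration required for complete inhibition of growth.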

`Cn1c(=O)oc2cc(C3CCC(=O)N3Cc3csc(-c4ccccc4)n3)ccc21` (stereo unspecified): the TGI in the assay with DLD-1 colon, in the assay on M14 melanoma, in the assay with U251 CNS, with SNB-75 CNS, in the assay with KM20L2 colon and in the assay with SK-OV-3 ovarian was greater than 100 µM each time. Further, the TGI in the assay on M19-MEL melanoma, in the assay with SNB-78 CNS and with KM12 colon was greater than 100 µM in each case.

As for `Cc1ccc(C2=CC(=O)c3ccccc3C2=O)n1-c1ccccc1`, the TGI in the assay on DLD-1 colon, in the assay on M14 melanoma, with U251 CNS, in the assay on SNB-75 CNS, in the assay on KM20L2 colon and with SK-OV-3 ovarian was greater than 100 µM in each case. Besides, the TGI in the assay on M19-MEL melanoma, in the assay with SNB-78 CNS and in the assay on KM12 colon was greater than 100 µM throughout.

As for `Cc1cc2c(c(C(=O)O)c1C)-c1cccc(Cl)c1C2=O`, the TGI in the assay on DLD-1 colon, with M14 melanoma, in the assay with U251 CNS, with SNB-75 CNS, with KM20L2 colon and in the assay with SK-OV-3 ovarian was greater than 100 µM each time. Further, the TGI with M19-MEL melanoma, in the assay on SNB-78 CNS and with KM12 colon was greater than 100 µM in each case.

In the case of `COc1ccc(-c2nc3ccccc3s2)cc1OC`, the TGI in the assay on MDA-MB-435 is greater than 100 µM; in the assay on M14 melanoma, greater than 100 µM; in the assay on U251 CNS, greater than 100 µM; in the assay on SNB-75 CNS it was greater than 100 µM; in the assay with PC-3 prostate it was greater than 100 µM; in the assay with SK-OV-3 ovarian, 62.9 µM. In addition, the TGI in the assay on NCI/ADR-RES ovarian and in the assay on KM12 colon was greater than 100 µM each time.

Take `O=C1C(=O)c2c(nc3ccc(C(F)(F)F)cn23)-c2ccccc21`: the GI50 is 0.179 µM in the assay on MDA-MB-435; 0.18 µM in the assay with M14 melanoma; 0.185 µM in the assay with U251 CNS; 0.202 µM with SNB-75 CNS; 0.21 µM in the assay with PC-3 prostate; 0.551 µM in the assay on SK-OV-3 ovarian. Moreover, the GI50 is 0.23 µM in the assay on NCI/ADR-RES ovarian and 0.288 µM in the assay with KM12 colon. Besides, the TGI in the assay with MDA-MB-435 stood at 0.324 µM; in the assay on M14 melanoma it was 0.329 µM; in the assay on U251 CNS, 0.377 µM; in the assay with SNB-75 CNS, 0.465 µM; in the assay with PC-3 prostate it was 0.761 µM; with SK-OV-3 ovarian it was 1.12 µM. The figures for the TGI in the assay on NCI/ADR-RES ovarian and in the assay on KM12 colon were 0.581 µM and 0.995 µM, respectively.

`Cc1cccc(C2NC(=O)c3ccccc3N2)c1` (stereo unspecified): the TGI is 2.77 µM in the assay with MDA-MB-435; greater than 54.8 µM in the assay with M14 melanoma; greater than 31.6 µM in the assay on U251 CNS; greater than 100 µM in the assay on SNB-75 CNS; greater than 100 µM in the assay on PC-3 prostate; greater than 44.6 µM in the assay on SK-OV-3 ovarian. Moreover, the TGI with NCI/ADR-RES ovarian is greater than 47.2 µM; with KM12 colon it was greater than 100 µM.

Regarding `COc1ccc2c(c1)C(=O)c1c-2c(OCCCN(C)C)nc2cc(Br)ccc12`, the GI50 in the assay with MDA-MB-435 is 5.45 µM; in the assay on M14 melanoma it was 14.8 µM; in the assay on U251 CNS it was 2.1 µM; in the assay with SNB-75 CNS, 1.57 µM; with PC-3 prostate it was 3.04 µM; in the assay with SK-OV-3 ovarian it was 7.28 µM. In addition, the GI50 in the assay with NCI/ADR-RES ovarian is 2.84 µM; with KM12 colon, 11.4 µM. Besides, the TGI in the assay on MDA-MB-435 was 18.1 µM; with M14 melanoma, 29 µM; in the assay with U251 CNS, 4.22 µM; with SNB-75 CNS it was 4.44 µM; in the assay on PC-3 prostate, 7.78 µM; in the assay on SK-OV-3 ovarian it was 22.9 µM. Further, the TGI amounted to 16.5 µM with NCI/ADR-RES ovarian and 24.3 µM in the assay on KM12 colon.

For the compound `CCCCNC(c1ccc(Cl)cc1)C(O)c1ccc(Cl)cc1` (stereo unspecified), the GI50 is 1.61 µM in the assay on MDA-MB-435; 1.22 µM in the assay on M14 melanoma; 1.75 µM with U251 CNS; 1.93 µM with SNB-75 CNS; 1.92 µM with PC-3 prostate; 5.72 µM in the assay on SK-OV-3 ovarian. The GI50 in the assay on NCI/ADR-RES ovarian is 1.81 µM; in the assay on KM12 colon it was 2.04 µM. Also, the TGI in the assay with MDA-MB-435 worked out at 3.57 µM; with M14 melanoma it was 2.9 µM; in the assay with U251 CNS, 3.65 µM; in the assay with SNB-75 CNS, 11.4 µM; in the assay on PC-3 prostate, 7.47 µM; with SK-OV-3 ovarian, 20 µM. Also, the values for the TGI with NCI/ADR-RES ovarian and with KM12 colon were 5.35 µM and 5.34 µM, respectively.

As to `O=c1c2cccnc2ncn1CCCN1CCCCC1`, the TGI with DLD-1 colon, in the assay with M14 melanoma, in the assay on U251 CNS, in the assay on SNB-75 CNS, in the assay with SK-OV-3 ovarian and in the assay on M19-MEL melanoma was greater than 100 µM throughout. The TGI with SNB-78 CNS and with KM12 colon was greater than 100 µM throughout.

For the compound `CC(C)C[C@@H](N)[C@@H](O)C(=O)N[C@H](C(=O)N[C@H](C(=O)N[C@@H](CC(=O)O)C(=O)O)C(C)C)C(C)C`, the GI50 in the assay with MDA-MB-435, with M14 melanoma, in the assay on U251 CNS, in the assay with SNB-75 CNS, in the assay with PC-3 prostate and in the assay on SK-OV-3 ovarian was greater than 20 µM throughout. Also, the GI50 in the assay with NCI/ADR-RES ovarian and in the assay with KM12 colon was greater than 20 µM throughout. Further, the TGI in the assay with MDA-MB-435, in the assay on M14 melanoma, in the assay with U251 CNS, with SNB-75 CNS, in the assay on PC-3 prostate and in the assay on SK-OV-3 ovarian was greater than 20 µM each time. In addition, the TGI in the assay on NCI/ADR-RES ovarian and with KM12 colon was greater than 20 µM throughout.

`OCc1ccc(N(Cc2ccc(F)cc2)Cc2ccc(F)cc2)cc1Cl`: the GI50 was 10.2 µM with MDA-MB-435; 5.79 µM in the assay on M14 melanoma; 5.5 µM in the assay with U251 CNS; 7.74 µM in the assay with SNB-75 CNS; 9.08 µM in the assay with PC-3 prostate; 13.6 µM in the assay on SK-OV-3 ovarian. The GI50 is 12.3 µM in the assay with NCI/ADR-RES ovarian and 10.5 µM in the assay with KM12 colon. The TGI in the assay on MDA-MB-435 stood at 22.4 µM; in the assay on M14 melanoma, 20.2 µM; with U251 CNS, 19.4 µM; with SNB-75 CNS, 22 µM; with PC-3 prostate, 22.8 µM; with SK-OV-3 ovarian, 26.5 µM. Also, the values for the TGI in the assay with NCI/ADR-RES ovarian and with KM12 colon were 30.4 µM and 23.8 µM, respectively.
